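All cell lines were grown in 96-well plates and treated with compound for 48 hours. TGI is the concentration that stops growth completely.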
How the values were obtained:
Assay in all cases: NCI anticancer screen, dose series, 48 h
NCI-H226 lung = system: NCI-H226 lung
OVCAR-3 ovarian = system: OVCAR-3 ovarian
HT29 colon = system: HT29 colon
A498 renal = system: A498 renal
OVCAR-4 ovarian = system: OVCAR-4 ovarian
SNB-19 CNS = system: SNB-19 CNS
RPMI-8226 leukemia = system: RPMI-8226 leukemia
SW-620 colon = system: SW-620 colon
NCI-H522 lung = system: NCI-H522 lung
NCI/ADR-RES ovarian = system: NCI/ADR-RES ovarian
MDA-MB-231 breast = system: MDA-MB-231 breast
OVCAR-8 ovarian = system: OVCAR-8 ovarian
786-0 renal = system: 786-0 renal
TK-10 renal = system: TK-10 renal
M14 melanoma = system: M14 melanoma
NCI-H23 lung = system: NCI-H23 lung
DU-145 prostate = system: DU-145 prostate
HCT-116 colon = system: HCT-116 colon
HCC-2998 colon = system: HCC-2998 colon
K-562 leukemia = system: K-562 leukemia
SF-268 CNS = system: SF-268 CNS
SF-295 CNS = system: SF-295 CNS
LOX IMVI melanoma = system: LOX IMVI melanoma
SK-MEL-28 melanoma = system: SK-MEL-28 melanoma
HCT-15 colon = system: HCT-15 colon
MALME-3M melanoma = system: MALME-3M melanoma
T-47D breast = system: T-47D breast
SN12C renal = system: SN12C renal
SK-MEL-2 melanoma = system: SK-MEL-2 melanoma
MDA-MB-435 = system: MDA-MB-435
BT-549 breast = system: BT-549 breast
MOLT-4 leukemia = system: MOLT-4 leukemia
COLO 205 colon = system: COLO 205 colon
U251 CNS = system: U251 CNS
PC-3 prostate = system: PC-3 prostate
UACC-62 melanoma = system: UACC-62 melanoma
CAKI-1 renal = system: CAKI-1 renal
HL-60(TB) leukemia = system: HL-60(TB) leukemia
ACHN renal = system: ACHN renal
HOP-62 NSCLC = system: HOP-62 NSCLC
A549 NSCLC = system: A549 NSCLC
KM12 colon = system: KM12 colon
SF-539 CNS = system: SF-539 CNS
NCI-H460 lung = system: NCI-H460 lung
OVCAR-5 ovarian = system: OVCAR-5 ovarian
SNB-75 CNS = system: SNB-75 CNS
UACC-257 melanoma = system: UACC-257 melanoma
HS 578T breast = system: HS 578T breast
MDA-N = system: MDA-N
UO-31 renal = system: UO-31 renal
RXF 393 renal = system: RXF 393 renal
SK-MEL-5 melanoma = system: SK-MEL-5 melanoma
MCF7 breast = system: MCF7 breast
SK-OV-3 ovarian = system: SK-OV-3 ovarian
IGROV1 ovarian = system: IGROV1 ovarian
SR leukemia = system: SR leukemia
CCRF-CEM leukemia = system: CCRF-CEM leukemia
HOP-92 NSCLC = system: HOP-92 NSCLC
EKVX NSCLC = system: EKVX NSCLC

Measured: TGI

CC1(C)C2CCC(=O)C1C(OCc1ccccc1)C2 (configuration not stated)
50.6 µM: SK-MEL-5 melanoma
> 100 µM: NCI-H226 lung | OVCAR-3 ovarian | HT29 colon | A498 renal | OVCAR-4 ovarian | SNB-19 CNS | RPMI-8226 leukemia | SW-620 colon | NCI-H522 lung | NCI/ADR-RES ovarian | MDA-MB-231 breast | OVCAR-8 ovarian | 786-0 renal | TK-10 renal | M14 melanoma | NCI-H23 lung | DU-145 prostate | HCT-116 colon | HCC-2998 colon | K-562 leukemia | SF-268 CNS | SF-295 CNS | LOX IMVI melanoma | SK-MEL-28 melanoma | HCT-15 colon | MALME-3M melanoma | T-47D breast | SN12C renal | SK-MEL-2 melanoma | MDA-MB-435 | BT-549 breast | MOLT-4 leukemia | COLO 205 colon | U251 CNS | PC-3 prostate | UACC-62 melanoma | CAKI-1 renal | HL-60(TB) leukemia | ACHN renal | HOP-62 NSCLC | A549 NSCLC | KM12 colon | SF-539 CNS | NCI-H460 lung | OVCAR-5 ovarian | SNB-75 CNS | UACC-257 melanoma | HS 578T breast | MDA-N | UO-31 renal | RXF 393 renal | MCF7 breast | SK-OV-3 ovarian | IGROV1 ovarian | SR leukemia | CCRF-CEM leukemia

C[C@@]1(O)C2C3CC4C5C3C1[C@](O)(C42)[C@H]5Br (some centres not stated)
> 100 µM: OVCAR-3 ovarian | HOP-92 NSCLC | HT29 colon | A498 renal | OVCAR-4 ovarian | SNB-19 CNS | SW-620 colon | NCI-H522 lung | NCI/ADR-RES ovarian | MDA-MB-231 breast | OVCAR-8 ovarian | 786-0 renal | TK-10 renal | M14 melanoma | NCI-H23 lung | DU-145 prostate | HCT-116 colon | HCC-2998 colon | K-562 leukemia | SF-268 CNS | SF-295 CNS | LOX IMVI melanoma | SK-MEL-28 melanoma | HCT-15 colon | T-47D breast | SN12C renal | SK-MEL-2 melanoma | MDA-MB-435 | BT-549 breast | MOLT-4 leukemia | COLO 205 colon | U251 CNS | PC-3 prostate | UACC-62 melanoma | CAKI-1 renal | HL-60(TB) leukemia | ACHN renal | HOP-62 NSCLC | A549 NSCLC | KM12 colon | SF-539 CNS | NCI-H460 lung | OVCAR-5 ovarian | UACC-257 melanoma | HS 578T breast | MDA-N | UO-31 renal | RXF 393 renal | SK-MEL-5 melanoma | MCF7 breast | EKVX NSCLC | IGROV1 ovarian | SR leukemia | CCRF-CEM leukemia

c1ccc([P+](c2ccccc2)(c2ccccc2)c2ccc([P+](c3ccccc3)(c3ccccc3)c3ccccc3)c3ccccc23)cc1
> 100 µM: NCI-H226 lung | OVCAR-3 ovarian | HT29 colon | A498 renal | SNB-19 CNS | RPMI-8226 leukemia | SW-620 colon | NCI-H522 lung | NCI/ADR-RES ovarian | MDA-MB-231 breast | OVCAR-8 ovarian | 786-0 renal | TK-10 renal | M14 melanoma | NCI-H23 lung | DU-145 prostate | HCT-116 colon | HCC-2998 colon | K-562 leukemia | SF-268 CNS | SF-295 CNS | LOX IMVI melanoma | SK-MEL-28 melanoma | HCT-15 colon | MALME-3M melanoma | T-47D breast | SN12C renal | SK-MEL-2 melanoma | MDA-MB-435 | BT-549 breast | MOLT-4 leukemia | COLO 205 colon | U251 CNS | PC-3 prostate | UACC-62 melanoma | CAKI-1 renal | HL-60(TB) leukemia | ACHN renal | HOP-62 NSCLC | A549 NSCLC | KM12 colon | SF-539 CNS | NCI-H460 lung | OVCAR-5 ovarian | SNB-75 CNS | UACC-257 melanoma | HS 578T breast | MDA-N | UO-31 renal | RXF 393 renal | SK-MEL-5 melanoma | MCF7 breast | SK-OV-3 ovarian | IGROV1 ovarian | SR leukemia | CCRF-CEM leukemia

— PubChem BioAssay (NCI)
